In BindingDB's records for doi:10.1021/jm00020a029 (Merck Research Laboratories, 1995):
Where a SMILES comes first, the peptide text is derived from it. [ ]: non-standard residue; d: D form. Phe(4-Cl) = N[C@@H](Cc1ccc(Cl)cc1)C(=O)O; Phe(4-NH2) = Nc1ccc(C[C@H](N)C(=O)O)cc1; Phe(4-F) = N[C@@H](Cc1ccc(F)cc1)C(=O)O; 2Nal = N[C@@H](Cc1ccc2ccccc2c1)C(=O)O; NMeR = CN[C@@H](CCCNC(=N)N)C(=O)O; hPhe = N[C@@H](CCc1ccccc1)C(=O)O; Cha = N[C@@H](CC1CCCCC1)C(=O)O; GABA = NCCCC(=O)O

Test: Evaluated for the activation of human thrombin receptor measured by platelet aggregation

| SMILES | EC50 [µM] |
| --- | --- |
| CC(C)C[C@H](NC(=O)[C@H](Cc1ccccc1)NC(=O)[C@H](C)N)C(=O)N[C@@H](CC(C)C)C(=O)N(C)[C@@H](CCCNC(=N)N)C(N)=O [(S)-2-{(S)-2-[(S)-2-((S)-2-Amino-propionylamino)-3-phenyl-propionylamino]-4-methyl-pentanoylamino}-4-methyl-pentanoic acid ((S)-1-carbamoyl-4-guanidino-butyl)-methyl-amide] (H-AFLL[NMeR]-NH2) | 800 |
| CC(C)C[C@H](NC(=O)[C@H](C)NC(=O)[C@H](Cc1ccccc1)NC(=O)[C@@H](N)CO)C(=O)N[C@@H](CCCNC(=N)N)C(N)=O [(S)-2-{(S)-2-[(S)-2-((S)-2-Amino-3-hydroxy-propionylamino)-3-phenyl-propionylamino]-propionylamino}-4-methyl-pentanoic acid ((S)-1-carbamoyl-4-guanidino-butyl)-amide] (H-SFALR-NH2) | 1.3 |
| CC(C)C[C@H](NC(=O)[C@H](CC(C)C)NC(=O)[C@H](Cc1ccccc1)NC(=O)[C@@H](N)CO)C(=O)N[C@@H](CCCNC(=N)N)C(N)=O [(S)-2-[(S)-2-((S)-2-Amino-3-hydroxy-propionylamino)-3-phenyl-propionylamino]-4-methyl-pentanoic acid [(S)-1-((S)-1-carbamoyl-4-guanidino-butylcarbamoyl)-3-methyl-butyl]-amide] | 1 |
| CC(C)C[C@H](NC(=O)[C@H](CC(C)C)NC(=O)[C@H](Cc1ccccc1)N(C)C(=O)[C@@H](N)CO)C(=O)N[C@@H](CCCNC(=N)N)C(N)=O [(S)-2-{(S)-2-[((S)-2-Amino-3-hydroxy-propionyl)-methyl-amino]-3-phenyl-propionylamino}-4-methyl-pentanoic acid [(S)-1-((S)-1-carbamoyl-4-guanidino-butylcarbamoyl)-3-methyl-butyl]-amide] | > 800 |
| CC(C)C[C@H](NC(=O)[C@H](Cc1ccccc1)NC(=O)[C@@H](N)CO)C(=O)N[C@@H](C)C(=O)N[C@@H](CCCNC(=N)N)C(N)=O [(S)-2-[(S)-2-((S)-2-Amino-3-hydroxy-propionylamino)-3-phenyl-propionylamino]-4-methyl-pentanoic acid [(S)-1-((S)-1-carbamoyl-4-guanidino-butylcarbamoyl)-ethyl]-amide] (H-SFLAR-NH2) | 15 |
| CC(C)C[C@H](NC(=O)[C@H](CC(C)C)NC(=O)[C@H](CCc1ccccc1)NC(=O)[C@H](C)N)C(=O)N[C@@H](CCCNC(=N)N)C(N)=O [(S)-2-[(S)-2-((S)-2-Amino-propionylamino)-4-phenyl-butyrylamino]-4-methyl-pentanoic acid [(S)-1-((S)-1-carbamoyl-4-guanidino-butylcarbamoyl)-3-methyl-butyl]-amide] (H-A[hPhe]LLR-NH2) | > 800 |
| CC(C)C[C@H](NC(=O)[C@H](CC(C)C)N(C)C(=O)[C@H](Cc1ccccc1)NC(=O)[C@@H](N)CO)C(=O)N[C@@H](CCCNC(=N)N)C(N)=O [(S)-2-{[(S)-2-((S)-2-Amino-3-hydroxy-propionylamino)-3-phenyl-propionyl]-methyl-amino}-4-methyl-pentanoic acid [(S)-1-((S)-1-carbamoyl-4-guanidino-butylcarbamoyl)-3-methyl-butyl]-amide] | 350 |
| CC(C)C[C@H](NC(=O)[C@H](CC(C)C)NC(=O)[C@H](Cc1ccc2ccccc2c1)NC(=O)[C@H](C)N)C(=O)N[C@@H](CCCNC(=N)N)C(N)=O [(S)-2-[(S)-2-((S)-2-Amino-propionylamino)-3-naphthalen-2-yl-propionylamino]-4-methyl-pentanoic acid [(S)-1-((S)-1-carbamoyl-4-guanidino-butylcarbamoyl)-3-methyl-butyl]-amide] (H-A[2Nal]LLR-NH2) | 19 |
| CC(C)C[C@H](NC(=O)[C@H](Cc1ccccc1)NC(=O)[C@@H](N)CO)C(=O)N[C@H](CC(C)C)C(=O)N[C@@H](CCCNC(=N)N)C(N)=O [(S)-2-[(S)-2-((S)-2-Amino-3-hydroxy-propionylamino)-3-phenyl-propionylamino]-4-methyl-pentanoic acid [(R)-1-((S)-1-carbamoyl-4-guanidino-butylcarbamoyl)-3-methyl-butyl]-amide] | 500 |
| CC(C)C[C@H](NC(=O)[C@H](C)NC(=O)[C@@H](N)CO)C(=O)N[C@@H](CC(C)C)C(=O)N[C@@H](CCCNC(=N)N)C(N)=O [(S)-2-[(S)-2-((S)-2-Amino-3-hydroxy-propionylamino)-propionylamino]-4-methyl-pentanoic acid [(S)-1-((S)-1-carbamoyl-4-guanidino-butylcarbamoyl)-3-methyl-butyl]-amide] (H-SALLR-NH2) | > 800 |
| CC(C)C[C@H](NC(=O)[C@@H](CC(C)C)NC(=O)[C@H](Cc1ccccc1)NC(=O)[C@@H](N)CO)C(=O)N[C@@H](CCCNC(=N)N)C(N)=O [(R)-2-[(S)-2-((S)-2-Amino-3-hydroxy-propionylamino)-3-phenyl-propionylamino]-4-methyl-pentanoic acid [(S)-1-((S)-1-carbamoyl-4-guanidino-butylcarbamoyl)-3-methyl-butyl]-amide] | > 800 |
| CC(C)C[C@H](NC(=O)[C@H](CC(C)C)NC(=O)[C@H](Cc1ccccc1)NC(=O)[C@@H](N)CO)C(=O)N[C@@H](CCCNC(=N)N)C(=O)N[C@@H](CC(N)=O)C(N)=O [(S)-2-[(S)-2-((S)-2-{(S)-2-[(S)-2-((S)-2-Amino-3-hydroxy-propionylamino)-3-phenyl-propionylamino]-4-methyl-pentanoylamino}-4-methyl-pentanoylamino)-5-guanidino-pentanoylamino]-succinamide] | 0.2 |

Further compounds by falling EC50, results first:

| EC50 [µM] | SMILES |
| --- | --- |
| 730 | CC(C)C[C@H](NC(=O)[C@H](CC(C)C)NC(=O)[C@H](Cc1ccccc1)NC(=O)CCCN)C(=O)N[C@@H](CCCNC(=N)N)C(N)=O [(S)-2-[(S)-2-(4-Amino-butyrylamino)-3-phenyl-propionylamino]-4-methyl-pentanoic acid [(S)-1-((S)-1-carbamoyl-4-guanidino-butylcarbamoyl)-3-methyl-butyl]-amide] (H-[GABA]FLLR-NH2) |
| 235 | CC(C)C[C@H](NC(=O)[C@H](CC(C)C)NC(=O)[C@H](Cc1ccc(N)cc1)NC(=O)[C@H](C)N)C(=O)N[C@@H](CCCNC(=N)N)C(N)=O [(S)-2-[(S)-3-(4-Amino-phenyl)-2-((S)-2-amino-propionylamino)-propionylamino]-4-methyl-pentanoic acid [(S)-1-((S)-1-carbamoyl-4-guanidino-butylcarbamoyl)-3-methyl-butyl]-amide] (H-A[Phe(4-NH2)]LLR-NH2) |
| 109 | CC(C)C[C@H](NC(=O)[C@H](Cc1ccccc1)NC(=O)[C@@H](N)CO)C(=O)N[C@@H](CC(C)C)C(=O)N[C@H](CCCNC(=N)N)C(N)=O [(S)-2-[(S)-2-((S)-2-Amino-3-hydroxy-propionylamino)-3-phenyl-propionylamino]-4-methyl-pentanoic acid [(S)-1-((R)-1-carbamoyl-4-guanidino-butylcarbamoyl)-3-methyl-butyl]-amide] |
| 70 | CC(C)C[C@H](NC(=O)[C@H](CC(C)C)NC(=O)[C@H](Cc1ccccc1)NC(=O)[C@@H](N)CO)C(=O)N[C@@H](C)C(N)=O [(S)-2-[(S)-2-((S)-2-Amino-3-hydroxy-propionylamino)-3-phenyl-propionylamino]-4-methyl-pentanoic acid [(S)-1-((S)-1-carbamoyl-ethylcarbamoyl)-3-methyl-butyl]-amide] (H-SFLLA-NH2) |
| 40 | CC(C)C[C@H](NC(=O)[C@H](Cc1ccc(F)cc1)NC(=O)[C@H](C)N)C(=O)N[C@@H](CCCNC(=N)N)C(=O)N[C@@H](CCCNC(=N)N)C(N)=O [(S)-2-[(S)-2-((S)-2-Amino-propionylamino)-3-(4-fluoro-phenyl)-propionylamino]-4-methyl-pentanoic acid [(S)-1-((S)-1-carbamoyl-4-guanidino-butylcarbamoyl)-4-guanidino-butyl]-amide] (H-A[Phe(4-F)]LRR-NH2) |
| 28 | CC(C)C[C@H](NC(=O)[C@H](CC(C)C)NC(=O)[C@H](CC1CCCCC1)NC(=O)[C@H](C)N)C(=O)N[C@@H](CCCNC(=N)N)C(N)=O [(S)-2-[(S)-2-((S)-2-Amino-propionylamino)-3-cyclohexyl-propionylamino]-4-methyl-pentanoic acid [(S)-1-((S)-1-carbamoyl-4-guanidino-butylcarbamoyl)-3-methyl-butyl]-amide] (H-A[Cha]LLR-NH2) |
| 3.3 | CC(C)C[C@H](NC(=O)[C@H](CC(C)C)NC(=O)[C@H](Cc1ccccc1)NC(=O)[C@@H](N)CO)C(=O)N[C@@H](CCCNC(=N)N)C(=O)N[C@@H](CC(N)=O)C(=O)N1CCC[C@H]1C(=O)N[C@@H](CC(N)=O)C(=O)N[C@@H](CC(=O)O)C(N)=O [SFLLRDPQD-NH2] (H-SFLLRNPND-NH2) |
| 1.2 | CC(C)C[C@H](NC(=O)[C@H](CC(C)C)NC(=O)[C@H](Cc1ccccc1)NC(=O)CN)C(=O)N[C@@H](CCCNC(=N)N)C(N)=O [(S)-2-[(S)-2-(2-Amino-acetylamino)-3-phenyl-propionylamino]-4-methyl-pentanoic acid [(S)-1-((S)-1-carbamoyl-4-guanidino-butylcarbamoyl)-3-methyl-butyl]-amide] (H-GFLLR-NH2) |
| 0.7 | CC(C)C[C@H](NC(=O)[C@H](CC(C)C)NC(=O)[C@H](Cc1ccc(Cl)cc1)NC(=O)[C@H](C)N)C(=O)N[C@@H](CCCNC(=N)N)C(N)=O [(S)-2-[(S)-2-((S)-2-Amino-propionylamino)-3-(4-chloro-phenyl)-propionylamino]-4-methyl-pentanoic acid [(S)-1-((S)-1-carbamoyl-4-guanidino-butylcarbamoyl)-3-methyl-butyl]-amide] (H-A[Phe(4-Cl)]LLR-NH2) |
| 0.2 | CC(C)C[C@H](NC(=O)[C@H](CC(C)C)NC(=O)[C@H](Cc1ccc(F)cc1)NC(=O)[C@H](C)N)C(=O)N[C@@H](CCCNC(=N)N)C(N)=O [(S)-2-[(S)-2-((S)-2-Amino-propionylamino)-3-(4-fluoro-phenyl)-propionylamino]-4-methyl-pentanoic acid [(S)-1-((S)-1-carbamoyl-4-guanidino-butylcarbamoyl)-3-methyl-butyl]-amide] (H-A[Phe(4-F)]LLR-NH2) |
